The values that follow come from patent US20180186877A1 (NATIONAL CEREBRAL AND CARDIOVASCULAR CENTER, priority 2013, published 2018).

The test system of one assay is human blood plasma. Kind of assay: Recalcification blood coagulation test with procyanidin. The format is biochemical. As for the experimental part:
An anti-blood coagulation effect yielded by procyanidin was confirmed by the recalcification blood coagulation test. […] Thereafter, as in Example 8, human blood plasma and Ca2+ were added to the test tube, and the coagulation time was measured. Then, the coagulation time of the test tube to which no procyanidin was added, was also measured in a similar manner. Furthermore, the coagulation time of the test tube to which no recombinant LOX-1 protein was added, was also measured in a similar manner.

Assay [1] deals with binding of LOX-1 to oxidized LDL (Homo sapiens, UniProt P78380). Particulars: Nishizuka et al. 2011; cited from earlier work.

Turning to procyanidin, the coagulation time entry in the assay on human blood plasma (1 μg/mL procyanidin added to blood plasma alone, no LOX-1) is “no influence”; in the assay on human blood plasma (1 μg/mL procyanidin with 1 μg/mL LOX-1 and blood plasma, significance less than 5%), “reduction of the coagulation time was suppressed”. In assay [1], the “inhibition of binding of LOX-1 to oxidized LDL” value is on record as “inhibits”.
